Patent US6358885B1, “Substituted phenylheterocyclic herbicides” (Mississippi State University, priority 1992, dated 2002)

Columns and labels:
duck salad = assay: Test C flood test plant response rating 0 to 100; type: in vivo, Heteranthera limosa; settings: for Plant response rating (0 to 100), Duck salad: under POSTEMERGENCE head (flood test species); for Plant response rating Duck salad: flood test species listed under POSTEMERGENCE, 0 to 100 scale
Text: (§1) The compounds evaluated in this test were formulated in a non-phytoxic solvent and applied to the soil surface before plant seedlings emerged (preemergence application), to water that covered the soil surface (flood application), and to plants that were in the one-to-four leaf stage (postemergence application). A sandy loam soil was used for the preemergence and postemergence tests, while a silt loam soil was used in the flood test. Water depth was approximately 2.5 cm for the flood test and was maintained at this level for the duration of the test. Plant species in the preemergence and postemergence tests consisted of barley (Hordeum vulgare), bedstraw (Galium aparine), blackgrass (Alopecurus myosuroides), chickweed (Stellaria media), corn (Zea mays), cotton (Gossypium hirsutum), crabgrass (Digitaria sanguinalis), downy brome (Bromus tectorum), giant foxtail (Setaria faberii), lambsquarters (Chenopodium album), morningglory (Ipomoea hederacea), pigweed ([…]), rape (Brassica napus), ryegrass (Lolium multiflorum), sorghum (Sorghum bicolor), soybean (Glycine max), speedwell (Veronica persica), sugar beet (Beta vulgaris), velvetleaf (Abutilon theophrasti), wheat (Triticum aestivum), wild buckwheat (Polygonum convolvulus), and wild oat (Avena fatua). All plant species were planted one day before application of the compound for the preemergence portion-of this test. Plantings of these species were adjusted to produce plants of appropriate size for the post-emergence portion of the test. […] All plant species were grown using normal greenhouse practices. Visual evaluations of injury expressed on treated plants, when compared to untreated controls, were recorded approximately fourteen to twenty one days after application of the test compound. […] A dash (-) response means no test result.

rape = assay: Test C preemergence/postemergence greenhouse plant response rating 0 to 100; type: in vivo, Brassica napus; settings: POSTEMERGENCE; for Plant response rating, Rape: 0 to 100 scale
How it was run: (§2)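 Compounds in non-phytotoxic solvent applied preemergence to sandy loam one day after planting, postemergence at the 1–4 leaf stage, or to ~2.5 cm floodwater over silt loam.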

blackgrass [1] = assay: Test B preemergence/postemergence greenhouse plant response rating 0 to 10; type: in vivo, Alopecurus myosuroides; settings: 0 to 10 scale
How it was run: (§3)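 Both application timings were run together: seeds got compound preemergence, and established seedlings (two to eighteen cm) got it postemergence. Non-phytotoxic solvent carried the chemical. Ratings are visual, versus controls, at twelve to sixteen days.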

giant foxtail = assay: Test C preemergence/postemergence greenhouse plant response rating 0 to 100; type: in vivo, Setaria faberii; settings: POSTEMERGENCE; for Plant response rating, Giant foxtail: 0 to 100 scale
How it was run: as §2

bedstraw = assay: Test B preemergence/postemergence greenhouse plant response rating 0 to 10; type: in vivo, Galium aparine; settings: 0 to 10 scale
How it was run: as §3

cocklebur = assay: as above; type: in vivo, Xanthium pensylvanicum; settings: 0 to 10 scale
How it was run: as §3

corn = assay: Test C preemergence/postemergence greenhouse plant response rating 0 to 100; type: in vivo, Zea mays; settings: POSTEMERGENCE; for Plant response rating, Corn: 0 to 100 scale
How it was run: as §2

rice = assay: Test B preemergence/postemergence greenhouse plant response rating 0 to 10; type: in vivo, Oryza sativa; settings: 0 to 10 scale
How it was run: as §3

barley = assay: as above; type: in vivo, Hordeum vulgare; settings: 0 to 10 scale
How it was run: as §3

wild buckwheat = assay: as above; type: in vivo, Polygonum convolvulus; settings: 0 to 10 scale
How it was run: as §3

ryegrass = assay: Test C preemergence/postemergence greenhouse plant response rating 0 to 100; type: in vivo, Lolium multiflorum; settings: POSTEMERGENCE
How it was run: as §2

wheat = assay: as above; type: in vivo, Triticum aestivum; settings: POSTEMERGENCE; for Plant response rating, Wheat: 0 to 100 scale
How it was run: as §2

cotton = assay: Test B preemergence/postemergence greenhouse plant response rating 0 to 10; type: in vivo, Gossypium hirsutum; settings: 0 to 10 scale
How it was run: as §3

lambsquarters = assay: Test C preemergence/postemergence greenhouse plant response rating 0 to 100; type: in vivo, Chenopodium album; settings: POSTEMERGENCE; for Plant response rating Lambsquarters: 0 to 100 scale
How it was run: as §2

cheatgrass = assay: Test B preemergence/postemergence greenhouse plant response rating 0 to 10; type: in vivo, Bromus secalinus; settings: 0 to 10 scale
How it was run: as §3

blackgrass [2] = assay: Test C preemergence/postemergence greenhouse plant response rating 0 to 100; type: in vivo, Alopecurus myosuroides; settings: POSTEMERGENCE; for Plant response rating, Blackgrass: 0 to 100 scale
How it was run: as §2

sugar beet = assay: as above; type: in vivo, Beta vulgaris; settings: POSTEMERGENCE; for Plant response rating, Sugar beet: 0 to 100 scale
How it was run: as §2

barnyardgrass = assay: Test C flood test plant response rating 0 to 100; type: in vivo, Echinochloa crus-galli; settings: for Plant response rating (0 to 100), Barnyardgrass: under POSTEMERGENCE head (flood test species); for Plant response rating, Barnyardgrass: flood test species listed under POSTEMERGENCE, 0 to 100 scale
Text: as §1

With `CC(C)OC(=O)COc1cc(-c2nn3c(c2Cl)CCCC3)c(F)cc1Cl` [Compound 39] the “Plant response rating (0 to 100), Duck salad” value (duck salad; Rate 16 g/ha) was 0, the “Plant response rating (0 to 100), Duck salad” value (duck salad; Rate 31 g/ha) was 0 and the “Plant response rating Duck salad” value (duck salad; 62 g/ha) was 0. The “Plant response rating Duck salad” value (duck salad; 125 g/ha) was 0, the “Plant response rating, Rape” value (rape; 62 g/ha) was 60 and the “Plant response rating, Rape” value (rape; 125 g/ha) was 70. For the same compound, the “Plant response rating (0 to 100), Rape” value (rape; Rate 16 g/ha) was 20, the “Plant response rating (0 to 100), Rape” value (rape; Rate 31 g/ha) was 50 and the “Plant response rating, Blackgrass” value (blackgrass [1]; POSTEMERGENCE, Rate 50 g/ha) was 4. The “Plant response rating, Blackgrass” value (blackgrass [1]; POSTEMERGENCE, Rate 200 g/ha) was 4, the “Plant response rating, Blackgrass” value (blackgrass [1]; PREEMERGENCE, Rate 50 g/ha) was 0 and the “Plant response rating, Blackgrass” value (blackgrass [1]; Rate 200 g/ha, PREEMERGENCE) was 2. For the same compound, the “Plant response rating, Giant foxtail” value (giant foxtail; 62 g/ha) was 30, the “Plant response rating, Giant foxtail” value (giant foxtail; 125 g/ha) was 60 and the “Plant response rating (0 to 100), Giant foxtail” value (giant foxtail; Rate 16 g/ha) was 10. For the same compound, the “Plant response rating (0 to 100), Giant foxtail” value (giant foxtail; Rate 31 g/ha) was 20, the “Plant response rating, Bedstraw” value (bedstraw; POSTEMERGENCE, Rate 200 g/ha) was 10 and the “Plant response rating, Bedstraw” value (bedstraw; PREEMERGENCE, Rate 50 g/ha) was 4. For the same compound, the “Plant response rating, Bedstraw” value (bedstraw; Rate 200 g/ha, PREEMERGENCE) was 9, the “Plant response rating, Cocklebur” value (cocklebur; POSTEMERGENCE, Rate 50 g/ha) was 10 and the “Plant response rating, Cocklebur” value (cocklebur; POSTEMERGENCE, Rate 200 g/ha) was 10. The “Plant response rating, Cocklebur” value (cocklebur; PREEMERGENCE, Rate 50 g/ha) was 0, the “Plant response rating, Cocklebur” value (cocklebur; Rate 200 g/ha, PREEMERGENCE) was 1 and the “Plant response rating, Corn” value (corn; 62 g/ha) was 30. For the same compound, the “Plant response rating, Corn” value (corn; 125 g/ha) was 30, the “Plant response rating (0 to 100), Corn” value (corn; Rate 16 g/ha) was 20 and the “Plant response rating (0 to 100), Corn” value (corn; Rate 31 g/ha) was 30. For the same compound, the “Plant response rating, Rice” value (rice; POSTEMERGENCE, Rate 50 g/ha) was 4, the “Plant response rating, Rice” value (rice; PREEMERGENCE, Rate 50 g/ha) was 0 and the “Plant response rating, Rice” value (rice; Rate 200 g/ha, POSTEMERGENCE) was 6. For the same compound, the “Plant response rating, Rice” value (rice; Rate 200 g/ha, PREEMERGENCE) was 0, the “Plant response rating, Barley” value (barley; POSTEMERGENCE, Rate 50 g/ha) was 4 and the “Plant response rating, Barley” value (barley; POSTEMERGENCE, Rate 200 g/ha) was 6. The “Plant response rating, Barley” value (barley; PREEMERGENCE, Rate 50 g/ha) was 0, the “Plant response rating, Barley” value (barley; Rate 200 g/ha, PREEMERGENCE) was 0 and the “Plant response rating, Wild buckwheat” value (wild buckwheat; POSTEMERGENCE, Rate 50 g/ha) was 10. The “Plant response rating, Wild buckwheat” value (wild buckwheat; PREEMERGENCE, Rate 50 g/ha) was 10, the “Plant response rating, Wild buckwheat” value (wild buckwheat; Rate 200 g/ha, POSTEMERGENCE) was 10 and the “Plant response rating, Wild buckwheat” value (wild buckwheat; Rate 200 g/ha, PREEMERGENCE) was 10. The “Plant response rating Ryegrass” value (ryegrass; 125 g/ha, 0 to 100 scale) was 20, the “Plant response rating (0 to 100), Ryegrass” value (ryegrass; Rate 16 g/ha) was 10 and the “Plant response rating (0 to 100), Ryegrass” value (ryegrass; Rate 31 g/ha) was 10. The “Plant response rating, Wheat” value (wheat; 62 g/ha) was 10, the “Plant response rating, Wheat” value (wheat; 125 g/ha) was 20 and the “Plant response rating (0 to 100), Wheat” value (wheat; Rate 16 g/ha) was 10. For the same compound, the “Plant response rating (0 to 100), Wheat” value (wheat; Rate 31 g/ha) was 10, the “Plant response rating, Cotton” value (cotton; POSTEMERGENCE, Rate 50 g/ha) was 10 and the “Plant response rating, Cotton” value (cotton; POSTEMERGENCE, Rate 200 g/ha) was 10. The “Plant response rating, Cotton” value (cotton; PREEMERGENCE, Rate 50 g/ha) was 0, the “Plant response rating, Cotton” value (cotton; Rate 200 g/ha, PREEMERGENCE) was 0 and the “Plant response rating Lambsquarters” value (lambsquarters; 62 g/ha) was 100. For the same compound, the “Plant response rating Lambsquarters” value (lambsquarters; 125 g/ha) was 100, the “Plant response rating (0 to 100), Lambsquarters” value (lambsquarters; Rate 16 g/ha) was 70 and the “Plant response rating (0 to 100), Lambsquarters” value (lambsquarters; Rate 31 g/ha) was 100. For the same compound, the “Plant response rating, Cheatgrass” value (cheatgrass; POSTEMERGENCE, Rate 50 g/ha) was 4, the “Plant response rating, Cheatgrass” value (cheatgrass; POSTEMERGENCE, Rate 200 g/ha) was 4 and the “Plant response rating, Cheatgrass” value (cheatgrass; PREEMERGENCE, Rate 50 g/ha) was 0. The “Plant response rating, Cheatgrass” value (cheatgrass; Rate 200 g/ha, PREEMERGENCE) was 2, the “Plant response rating, Blackgrass” value (blackgrass [2]; 62 g/ha) was 30 and the “Plant response rating, Blackgrass” value (blackgrass [2]; 125 g/ha) was 40. The “Plant response rating (0 to 100), Blackgrass” value (blackgrass [2]; Rate 16 g/ha) was 10, the “Plant response rating (0 to 100), Blackgrass” value (blackgrass [2]; Rate 31 g/ha) was 10 and the “Plant response rating, Sugar beet” value (sugar beet; 62 g/ha) was 100. The “Plant response rating, Sugar beet” value (sugar beet; 125 g/ha) was 100, the “Plant response rating (0 to 100), Sugar beet” value (sugar beet; Rate 16 g/ha) was 100 and the “Plant response rating (0 to 100), Sugar beet” value (sugar beet; Rate 31 g/ha) was 100. The “Plant response rating (0 to 100), Barnyardgrass” value (barnyardgrass; Rate 16 g/ha) was 50, the “Plant response rating (0 to 100), Barnyardgrass” value (barnyardgrass; Rate 31 g/ha) was 80 and the “Plant response rating, Barnyardgrass” value (barnyardgrass; 62 g/ha) was 90. The “Plant response rating, Barnyardgrass” value (barnyardgrass; 125 g/ha) was 95.
